Measurements reported in publication PMC11915509, “Small molecule inhibitors of hnRNPA2B1–RNA interactions reveal a predictable sorting of RNA subsets into extracellular vesicles” (Nucleic Acids Research, 2025).
Several values for one entry are separate records, joined by “and”; a condition that tells them apart may be missing. Equal values may be shown once. Where a name gives a salt, the structure may show the parent alone. Blank lines part the entries; values can stand above or below the molecule they belong to.

Columns and labels:
[1] = biological target: T1, hnRNPA2B1-EXOmotif interaction (Homo sapiens, UniProt P22626); experiment: AlphaScreen dose-response, inhibition of hnRNPA2B1-EXOmotif RNA interaction; format: binding; settings: AlphaScreen dose-response with RNA EXOmotif, one site fitting
T1 construct: purified a human full-length, GST-tagged protein expressed in Escherichia coli cells; made in house; host or cells: E. coli BL21 (DE3)
T1 sequence (P22626 whole entry): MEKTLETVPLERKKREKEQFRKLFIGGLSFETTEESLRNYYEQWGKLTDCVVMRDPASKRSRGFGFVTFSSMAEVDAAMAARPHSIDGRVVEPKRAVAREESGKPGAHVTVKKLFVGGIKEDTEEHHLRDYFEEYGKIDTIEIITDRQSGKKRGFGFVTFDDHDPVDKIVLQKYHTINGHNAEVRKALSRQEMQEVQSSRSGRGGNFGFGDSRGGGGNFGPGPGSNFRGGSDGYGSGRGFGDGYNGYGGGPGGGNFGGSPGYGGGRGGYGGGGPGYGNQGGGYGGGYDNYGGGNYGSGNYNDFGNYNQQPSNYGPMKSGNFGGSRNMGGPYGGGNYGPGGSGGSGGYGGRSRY
Procedure: The assays were performed in OptiPlate-384-well plates (PerkinElmer, 6007299) in 20 μl final volume. The ligands were diluted in AlphaBuffer [25 mM HEPES, pH 7.4, 100 mM NaCl, 0.01% bovine serum albumin (BSA)] and tested using AlphaScreen GST Detection Kit (PerkinElmer, 6760603C). […] For the reactions, 4 μl of the RNA probes were first added to the plate, then 16 μl of a mix containing all the other components was added, and the plate was incubated at room temperature for 1 h in the dark.
The high-throughput drug screening was performed in a total volume of 20 μl using 17 nM of RNA EXO motif (chosen below the hooking point), 30 nM GST-hnRNPA2B1, and 250 nM of compounds belonging to mass spectrometry (MS) Spectrum Collection library (MicroSource, 2000 compounds). Compounds were dispensed into white 384-well Optiplates (PerkinElmer) using Echo 650 acoustic dispenser (Beckman Coulter) followed by the addition of protein in Alpha Buffer using the EL460 dispenser (BioTek). After 15 min of incubation, RNA probes were added by Echo 650 acoustic dispenser, while Donor and Acceptor beads from the GST detection kit (Perkin Elmer) were dispensed by EL460 instrument. Following 60 min of incubation, Alpha signal was detected using Enspire plate reader instrument (PerkinElmer). The raw Alpha counts were normalized to Dimethyl sulfoxide (DMSO)-treated controls within every plate.

[2] = system: hnRNPA2B1 protein association with purine-rich RNA probe; experiment: RNA pull-down with biotinylated EXOmotif probe after cell treatment, immunoblotting; format: cell-based, mouse; settings: NSC34 cells, 6 h, 5 μM compound
Procedure: To prepare native protein lysates, 1–3 × 10^6 NSC34 cells were lysed in buffer R-Lysis [25 mM HEPES, pH 7.5, 100 mM NaCl, 1× protease inhibitor (Thermo Fisher, 78429)] and subjected to a water-bath sonication (35–40 amplitude, 6–7 cycles of 7 s on and 45 s off). After a centrifugation at 14 000 rpm for 20 min at 4°C, the supernatant was collected and 200 μg were incubated with 5 μl of buffer equilibrated Dynabeads^TM M-280 Streptavidin (Invitrogen, 11205D) for 15 min at 4°C in rotation to perform a pre-clearing step. After the magnetic separation, the pre-cleared lysate was incubated with 10 μl of 100 μM RNA biotinylated probes (or 400 ng of biotinylated EV-RNA) and incubated for 1 h at 4°C in rotation. Then, 5 μl/sample of beads were added and the sample were put again in rotation for 20 min at 4°C. […]
Cells were lysed in lysis buffer [50 mM Tris–HCl, pH 7.4, 150 mM NaCl, 1 mM EDTA, 0.25% NP-40, 0.1% Triton X-100, 0.1% sodium dodecyl sulphate, 1× protease inhibitor (Thermo Fisher, 78429)]. […] The signal was measured with Amersham ECL HRP-Conjugated Antibodies (Cytiva) using BioRad Chemidoc XRS+.

[3] = system: EV miR-221 from NSC34 cells; experiment: ddPCR of miR-221-3p in NSC34-derived EV-RNA; format: cell-based, mouse; settings: NSC34-derived EVs, 6 h treatment
Procedure: EVs were isolated from HEK293T, NSC34, and smNPC-derived motor neurons using nickel-based isolation (NBI) or differential ultracentrifugation (UC). NBI protocol was performed as already described. Briefly, after a first centrifugation step at 2800 × g for 10 min, nickel beads were incubated for 30 min with serum-free media collected from cells in a ratio of 25 μl of beads per ml of medium. After a 2 min centrifugation at 600 g, particles were eluted from the beads by adding 1× elution buffer made of Solution A [16 mM ethylenediaminetetraacetic acid (EDTA), UltraPure, pH 8.0, Thermo Fisher] and Solution B (10 mM NaCl, 225 μM citric acid, Sigma–Aldrich) diluted five times in phosphate-buffered saline (PBS). After 15 min incubation at 28°C in a thermoshaker, the EVs were retrieved by 1-min centrifugation at 1800 × g and subjected to the following characterization. NBI was used to recover polydisperse EVs and include the RNA contribution from these for reverse proteomics experiments. The EV-RNA for reverse proteomics was pooled from three consecutive EV isolation procedures performed on a total of 30 T75 flasks (10 flasks each) of NSC34 cells grown until 80% confluence under standard conditions before washing with PBS and incubating with serum-free medium with glutamine and antibiotics. Differential UC was applied as an alternative EV isolation protocol to confirm the detection of hnRNPA2B1 protein. UC was performed by a SW 32 Ti swinging bucket rotor in an Optima XPN-100 ultracentrifuge (Beckman Coulter, Brea, CA, USA). The cell-conditioned serum-free media, after the first centrifugation step at 2800 × g for 10 min, was put in open-top Ultra-Clear centrifuge tubes (Beckman Coulter-344058) and subjected to 100 000 × g (100 K) UC for 70 min at 4°C under vacuum, with or without an additional step at 10 000 × g (10 K) to first sediment larger particles. Then the supernatant was removed, and the pellet was resuspended in 0.22 μm filtered PBS. Differential UC alone, consisting of 2800 × g for 10 min and 100 000 × g for 70 min, was applied for experiments reported in Fig. 5. […]
RNA from cells was extracted using TRI Reagent® (T9424, Sigma) following the manufacturer’s instructions. Thermo Fisher Nanodrop 2000 Spectrophotometer was used to assess the purity and quantity of extracted RNA. […] The elution was in 10–20 μl of RNase-free water and the RNA profiling and quantification was assessed by Agilent 2100 Bioanalyzer and RNA 6000 Pico Kit (5067-1513). Cell- and EV-RNAs were also analysed with DNF-472 HS RNA (15 nt) Kit (Agilent Technologies, Santa Clara, CA), according to the manufacturer. […] Results were analysed with Agilent ProSize data analysis software, that allows the analysis of RNA size, concentration and quality. […]

[4] = system: hnRNPA2B1 and TDP43 bound RNA (miR-221, miR-1910); experiment: RNA immunoprecipitation (RIP) on cytoplasmic lysates of treated NSC34 cells; format: cell-based, mouse; settings: 6 h treatment, anti-hnRNPA2B1 and anti-TDP43 RIP
Procedure: Flow cytometry of a fraction of RNA immunoprecipitation (RIP) experiments, consisting of RNA/protein-antibody-bead complexes, was performed on the same instrument using a sequential gating with Streptavidin beads alone ± antibodies (this signal corresponded to background). Pyronin Y (PY) was used at a final concentration of 50 ng/ml and the PY-positive events recorded for 1 min.
Approximately 2 × 10^6 cells were used for each RIP experiment, performed as already described, without cross-linking steps and using 0.5 μg/ml of antibodies. Beads-precipitated samples were divided for immunoblotting or TRIzol-based RNA isolation. Densitometric analysis obtained using Image J software (v.1.54). miRNA TaqMan probes were bought from Thermo Fisher with the following codes: miR-221 (477 981), miR-1910 (479 581), and miR-126 (4 427 975).

EXO-motif RNA probe = experiment: Absorbance scan of compounds mixed with EXO-motif RNA; format: binding; settings: EXO-motif RNA probe, 1:5 micromolar ratio
Procedure: (§1) Five μM RNA EXO motif were mixed with 25 μM compounds in AlphaBuffer (25 mM HEPES, pH 7.4, 100 mM NaCl, 0.01% BSA) to a final volume of 20 μl. Absorbance spectrum (200–530 nm) was measured using Tecan Spark® microplate reader with a NanoQuant plate at room temperature. In fluorescence indicator displacement (FID), a 2× final concentration of Midori green advanced (Resnova) was added to the samples and the melting curve measured using Bio-Rad CFX96™ System from 30°C to 90°C.

NSC34 cells = experiment: Nanodrop quantification of total intracellular RNA after treatment; format: cell-based, mouse; settings: 6 h treatment
Procedure: RNA from cells was extracted using TRI Reagent® ([…], Sigma) following the manufacturer's instructions. Thermo Fisher Nanodrop 2000 Spectrophotometer was used to assess the purity and quantity of extracted RNA. RNA from EVs was extracted using Single Cell RNA Isolation Kit (51800, Norgen) following the manufacturer's protocol. The elution was in 10-20 μl of RNase-free water and the RNA profiling and quantification was assessed by Agilent 2100 Bioanalyzer and RNA 6000 Pico Kit (5067-1513). Cell- and EV-RNAs were also analysed with DNF-472 HS RNA (15 nt) Kit (Agilent Technologies, Santa Clara, CA), according to the manufacturer. Briefly, 2 μl of RNA samples concentrated within a range of 50-5000 pg/μl and RNA Ladder were added to Diluent Marker, denatured at 70°C for 2 min and loaded. Results were analysed with Agilent ProSize data analysis software, that allows the analysis of RNA size, concentration and quality. Through a Peak Analysis it was possible to access the concentration of each peak recognized by the software. Half a nanogram of extracted RNA from cells and EVs was used as input for complementary DNA (cDNA) synthesis. cDNA was produced using TaqManTM Advanced miRNA cDNA Synthesis Kit (Applied BiosystemsTM, A28007) following manufacturers' instructions and used for droplet digital polymerase chain reaction (PCR) experiments.

EXO-motif RNA = experiment: Fluorescence indicator displacement (FID) melting curve, EXO-motif RNA; format: binding; settings: 5 μM RNA, 25 μM compound, Midori green
Procedure: as §1

GST-hnRNPA2B1 [5] = biological target: T2, GST-hnRNPA2B1 (Homo sapiens, UniProt P22626 1-353); experiment: AlphaScreen kinetics (koff/kon); 30 nM protein; kon 523664 M-1 min-1, koff 0.02091 min-1; AlphaScreen: 25 mM HEPES pH 7.4, 100 mM NaCl, 0.01% BSA, RT 1 h; REMSA: 20 mM HEPES pH 7.5, 50 mM KCl, 0.5 ug BSA, 0.25% glycerol, RT; pull-down: 25 mM HEPES pH 7.5, 100 mM NaCl, 4 C; settings: protein: recombinant; tags: N-terminal GST (pGEX-6P-1); label: 5'-biotin-TEG; single strand; weak predicted secondary structure (-0.5 kcal/mol)
T2 sequence (P22626 whole entry): as above

GST-hnRNPA2B1 [6] = biological target: T2, GST-hnRNPA2B1; experiment: AlphaScreen saturation binding; AlphaScreen: 25 mM HEPES pH 7.4, 100 mM NaCl, 0.01% BSA, RT 1 h; REMSA: 20 mM HEPES pH 7.5, 50 mM KCl, 0.5 ug BSA, 0.25% glycerol, RT; pull-down: 25 mM HEPES pH 7.5, 100 mM NaCl, 4 C; settings: protein: recombinant; tags: N-terminal GST (pGEX-6P-1); label: 5'-biotin-TEG; single strand; weak predicted secondary structure (-0.5 kcal/mol)
GST-hnRNPA2B1 [7] = biological target: T2, GST-hnRNPA2B1; experiment: AlphaScreen saturation binding; near-background counts; AlphaScreen: 25 mM HEPES pH 7.4, 100 mM NaCl, 0.01% BSA, RT 1 h; REMSA: 20 mM HEPES pH 7.5, 50 mM KCl, 0.5 ug BSA, 0.25% glycerol, RT; pull-down: 25 mM HEPES pH 7.5, 100 mM NaCl, 4 C; settings: protein: recombinant; tags: N-terminal GST (pGEX-6P-1); label: 5'-biotin-TEG; single strand

IC50 [1]: 100 nM
Molecule: C=C1c2cccc(O)c2C(=O)C2=C(O)[C@]3(O)C(=O)C(C(N)=O)=C(O)[C@@H](N(C)C)[C@@H]3[C@@H](O)[C@H]12 [MH, methacycline hydrochloride, reference compound]
association of hnRNPA2B1 protein with exogenous purine-rich RNA probe [2]: most effective
vesicular miR-221, copy number normalized on Y3 RNA and DMSO [3]: vesicular depletion

Molecule: CC(C)=CC1C(C(=O)OCc2cccc(Oc3ccccc3)c2)C1(C)C (centres unmarked) [P, phenotrin]
percentage of bound targets (miR-221, miR-1910) [4]: significantly reduced
IC50 [1]: ~120 nM and 122 nM
spectroscopic changes at 230 nm (EXO-motif RNA probe): main spectroscopic changes
accumulation of intracellular RNAs (NSC34 cells): significantly higher
vesicular miR-221, copy number normalized on Y3 RNA and DMSO [3]: vesicular depletion

IC50 [1]: ~250 nM and 250 nM
Molecule: O=C(O)C1=CC(=C(c2ccc(O)c(C(=O)O)c2)c2ccc(O)c(C(=O)O)c2)C=CC1=O [ATA, aurin tricarboxylic Acid, reference compound]

Molecule: O=C(O[C@@H]1Cc2c(O)cc(O)cc2O[C@@H]1c1cc(O)c(=O)c2c(O)c(O)cc([C@H]3Oc4cc(O)cc(O)c4C[C@H]3OC(=O)c3cc(O)c(O)c(O)c3)c2c1)c1cc(O)c(O)c(O)c1 [TD, theaflavin digallate]
vesicular miR-221, copy number normalized on Y3 RNA and DMSO [3]: vesicular depletion

thermal shift of the EXO-motif RNA (EXO-motif RNA): 6.3 °C
Molecule: neomycin [reference compound]

Molecule: GGGGAGGUUAGGGAGGAGGGGGGUAGGCGCC (ssRNA) [EXOmotif RNA (biotin)]
Kd (GST-hnRNPA2B1 [5]): 40 ± 3 nM
Kd (GST-hnRNPA2B1 [6]): 3.4 ± 1.6 nM

Molecule: AGGACUGC (ssRNA) [RNA 276]
binding result (GST-hnRNPA2B1 [7]): no binding
